Measurements as given in paper PMC10994559 (PLOS Neglected Tropical Diseases, 2024).
Values joined by “and” are separate entries in the source; they are usually repeats but may differ in a detail not shown here. Identical values can stand only once. “Also recorded” adds a separate entry of the source.

Columns and labels:
[1] = test system: L. major axenic amastigotes; experiment: L. major axenic amastigote viability, resazurin reduction; settings: Leishmania major; for viability at 2.5 µM / viability at 25 µM: 72 h; for viability at 2.5 µM: read-out: Residual viability, L.major amastigote (2.5 µM); for viability at 25 µM: read-out: Residual viability, L.major amastigote (25 µM); for EC50: read-out: EC50 L. major axenic amastigote
How it was run: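 Axenic L. major LV561 amastigotes were grown in Grace medium with 20% FCS, pH 5.4, at 33°C and seeded at 0.5x10^5 cells/well with compounds for 72 h. Resazurin was then added for 6 h and fluorescence read at ex 550/em 590 nm; hits were retested at 2.5 μM.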

T. brucei BSF = experiment: Cell cycle (nuclei/kinetoplast count, DAPI) after PHT-39 treatment; type: cell-based, Trypanosoma brucei; settings: 1 x EC50, 24 h
Procedure: 10^6 cells were harvested by centrifugation (1000*g) after 24 h from cultures in logarithmic growth phase and washed once with serum-free HMI-9. After fixation in 2% formaldehyde cell were applied to a glass slide and mounted with Vectashield Antifade mounting medium with 4′,6-diamidino2-phenylindole (DAPI) for fluorescence microscopy imaging on a Leica TCS SP8 WLL SMD-FLIM inverted confocal microscope. The number of nuclei (N) and kinetoplasts (K) per cell were then counted for 100 cells in each respective replicate (n = 3), allowing determination of cell cycle stage.

E. histolytica = E. histolytica viability, ATP luminescence (Cell titer glo); type: cell-based, Entamoeba histolytica; settings: Entamoeba histolytica, 48 h
How it was run: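 E. histolytica strain B2-5 at 2.5x10^4 cells/ml was exposed to compound for 48 h at 37 °C under anaerobic conditions, with viability read as ATP luminescence (CellTiter-Glo). The primary screen used 25 μM in triplicate, and follow-up potency runs used 9–16-point ranges spanning 0.01–100 μM.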

T. brucei 2T1 RNAi lines = experiment: Dose response after targeted stem-loop RNAi knockdown; type: cell-based, Trypanosoma brucei
Procedure: Selected genes with the high reads were validated by individual RNAi targeting. Briefly, gene-specific RNAi fragments of 400–600 bp were amplified with PCR primers designed with RNAit tool (S1 Table) and cloned into pRPa^iSL to generate stem-loop, ‘hairpin’ dsRNA to induce RNAi knockdown. The AscI linearized plasmid was transfected into 2T1 cells and positive colonies were selected with hygromycin (2.5 μg/ml). Positive, puromycin sensitive clones were analysed by PHT-39 dose response analysis after 24 h tetracycline induction and compared to uninduced controls and parental lines.

Plasmodium berghei ANKA = test system: Plasmodium berghei ANKA; design: method as in PMID 35749989; settings: cited from earlier work
Plasmodium falciparum = test system: Plasmodium falciparum; design: method as in PMID 35749989; settings: cited from earlier work
[2] = test system: human hepatocyte carcinoma HepG2 cells; experiment: Cytotoxicity assay HepG2, resazurin reduction; type: cell-based
Procedure: Mammalian cell lines (J774 and HepG2) were passaged in RPMI media supplemented with MEM, Pen-Strep (1%) and 10% FCS. Cultures were kept at 37°C incubator with 5% CO2 in filter-cap flasks.
Murine macrophage cells (J774) and human hepatocyte carcinoma HepG2 cells were seeded at 0.5x10^5 cell/well in 384 well plates in triplicate, exposed to serial dilution of compounds, dispensed using an Echo 650 acoustic dispenser (Labcyte). After incubation for 72 h at 37°C, 5% CO2, cell viability was determined using fluorescence resazurin reduction assay (λEx: 550 nm; λEm: 590 nm).

[3] = 24 h tetracycline induction vs uninduced

Row | SMILES | viability at 2.5 µM [1] | viability at 25 µM [1] | EC50 [1] | Proportion of 2K1N cells, decreased to (T. brucei BSF) | Proportion of 2K2N cells, decreased to (T. brucei BSF) | viability at 2.5 µM (E. histolytica; read-out: Residual viability, E.histolytica (2.5 µM)) | viability at 25 µM (E. histolytica; read-out: Residual viability, E.histolytica (25 µM)) | Sensitivity shift after RNAi of HSP104 homolog (ClpB1) Tb927.2.5980 (T. brucei 2T1 RNAi lines) | Sensitivity shift after RNAi of nicotinamidase paralogs Tb927.9.3970 and Tb927.9.4040 (T. brucei 2T1 RNAi lines) | EC50 shift after RNAi of miltefosine transporter Tb927.11.3350 (T. brucei 2T1 RNAi lines; [3]) | Sensitivity shift after knockdown of ESAG5 (T. brucei 2T1 RNAi lines; [3]) | Parasitemia and host survival, P. berghei ANKA infection model (Plasmodium berghei ANKA) | Mitochondrial membrane potential, P. falciparum trophozoites (Plasmodium falciparum; 3 h exposure at EC50 0.64 μM) | EC50 (Plasmodium falciparum; read-out: EC50 Plasmodium falciparum intraerythrocyte stages) | Selectivity ([2]; HepG2 cytotoxicity vs intramacrophage L. infantum) | EC50 ([2]; Homo sapiens, HepG2, 72 h, cytotoxicity, 72 h, read-out: EC50 (CT50) HepG2)
1 | C[C@@H]1[C@H](O)[C@@H](C)/C=C/C=C/C=C/C=C/C=C/C=C/C=C/[C@H](O[C@@H]2O[C@H](C)[C@@H](O)[C@H](N)[C@@H]2O)C[C@@H]2O[C@](O)(C[C@@H](O)C[C@@H](O)[C@H](O)CC[C@@H](O)C[C@@H](O)CC(=O)O[C@H]1C)C[C@H](O)[C@H]2C(=O)O [AmB, amphotericin B, reference compound] | 2.71 ± 1.02% | 0.33 ± 2.12% | 300 nM |  |  |  |  |  |  |  |  |  |  |  |  | 
2 | CC[C@@H](C)[C@H](c1nc2ccccc2n1Cc1cn(-c2ccc(C(F)(F)F)cc2)nn1)N1C(=O)c2ccccc2C1=O [PHT-39] | 62.1 ± 3.43% | 2.6% | 2600 ± 1800 nM | approximately 57% | approximately 28% | 81.6 ± 12.6% | 44.5 ± 9.9% | did not elicit a significant PHT-39 sensitivity shift; also recorded: did not determine a significant sensitivity shift | did not elicit a significant PHT-39 sensitivity shift; also recorded: did not determine a significant sensitivity shift | mild but significant EC50 increase | very modest but significant sensitivity shift | considerable decrease in parasitemia and significantly extended host survival | collapse of the mitochondrial membrane potential | 640 nM and 600 nM | over 90 fold | > 100000 nM
